Assay results taken from ChEMBL document CHEMBL1201862, “PubChem BioAssay data set” (2004).
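Method: 48-hour compound exposure of cells in 96-well plates, five concentrations, linear interpolation of endpoints. At the GI50, growth is halved.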 The source made the active and inactive calls. No stated cut-off is given here; in the data, active = GI50 up to about 1.1 µM and inactive = higher.

Assays:
Test in all cases: growth of human tumour cells (NCI), 48 h
SNB-75 = test system: SNB-75
MCF7 = test system: MCF7
A498 = test system: A498
RPMI-8226 = test system: RPMI-8226
A549 = test system: A549
MDA-MB-435 = test system: MDA-MB-435
K562 = test system: K562
CCRF-CEM = test system: CCRF-CEM
LOX IMVI = test system: LOX IMVI
HCC 2998 = test system: HCC 2998
UACC-257 = test system: UACC-257
TK-10 = test system: TK-10
SK-MEL-28 = test system: SK-MEL-28
T47D = test system: T47D
MDA-MB-231 = test system: MDA-MB-231
Hs-578T = test system: Hs-578T
CAKI-1 = test system: CAKI-1
SF-268 = test system: SF-268
ACHN = test system: ACHN
NCI-H226 = test system: NCI-H226

SMILES | GI50 (SNB-75) | GI50 (MCF7) | GI50 (A498) | GI50 (RPMI-8226) | GI50 (A549) | GI50 (MDA-MB-435) | GI50 (K562) | GI50 (CCRF-CEM) | GI50 (LOX IMVI) | GI50 (HCC 2998) | GI50 (UACC-257) | GI50 (TK-10) | GI50 (SK-MEL-28) | GI50 (T47D) | GI50 (MDA-MB-231) | GI50 (Hs-578T) | GI50 (CAKI-1) | GI50 (SF-268) | GI50 (ACHN) | GI50 (NCI-H226)
O=C1C=C(OCCCl)C(=O)c2c(O)ccc(O)c21 | 0.405 µM (active) | 0.216 µM (active) | 1.28 µM (inactive) | 2.08 µM (inactive) | 0.262 µM (active) | 0.204 µM (active) | 2.25 µM (inactive) | 0.469 µM (active) | 0.202 µM (active) | 1.63 µM (inactive) | 0.177 µM (active) | 2.38 µM (inactive) | 0.172 µM (active) | 2.24 µM (inactive) | 1.78 µM (inactive) | 3.98 µM (inactive) | 2.03 µM (inactive) | 0.931 µM (active) | 1.54 µM (inactive) | 2.26 µM (inactive)
CCN1C(=O)C(C)S/C1=N\NC(=O)CSc1nc2ccccc2c(=O)n1CC (stereo not drawn) | > 100 µM (inactive) | > 100 µM (inactive) | > 100 µM (inactive) | > 100 µM (inactive) | > 100 µM (inactive) | > 100 µM (inactive) | 98.6 µM (inactive) | > 100 µM (inactive) | > 100 µM (inactive) | > 100 µM (inactive) | > 100 µM (inactive) | > 100 µM (inactive) | > 100 µM (inactive) | > 100 µM (inactive) | > 100 µM (inactive) | > 100 µM (inactive) | > 100 µM (inactive) | 90.6 µM (inactive) | > 100 µM (inactive) | > 100 µM (inactive)
O=C(c1ccsc1)c1cc2c(s1)C(=O)c1ccsc1C2=O | 0.171 µM (active) | 0.182 µM (active) | 1.58 µM (inactive) | 0.136 µM (active) | 0.612 µM (active) | 0.0271 µM (active) | 0.184 µM (active) | 0.155 µM (active) | 0.0211 µM (active) | 0.537 µM (active) | 0.174 µM (active) | 0.64 µM (active) | 0.142 µM (active) | 0.235 µM (active) | 0.0755 µM (active) | 0.209 µM (active) | 0.499 µM (active) | 0.165 µM (active) | 0.0959 µM (active) | 0.552 µM (active)
O=C1/C(=C/c2ccccc2[N+](=O)[O-])N=C(c2ccccc2)N1C1Nc2cc3c(cc2S1)NC(N1C(=O)/C(=C/c2ccccc2[N+](=O)[O-])N=C1c1ccccc1)S3 (stereo not drawn) | > 100 µM (inactive) | 18.7 µM (inactive) | 27.5 µM (inactive) | 18.1 µM (inactive) | 12.6 µM (inactive) | 51.6 µM (inactive) | 37.1 µM (inactive) | – | 35 µM (inactive) | 16.7 µM (inactive) | 91 µM (inactive) | 72.4 µM (inactive) | > 100 µM (inactive) | 25.1 µM (inactive) | 61.5 µM (inactive) | 50 µM (inactive) | 39.7 µM (inactive) | 47.3 µM (inactive) | 28.4 µM (inactive) | 31.5 µM (inactive)
Oc1cc(Br)cc2cccnc12 | 15.2 µM (inactive) | 0.964 µM (active) | 8.36 µM (inactive) | 1.31 µM (inactive) | 1.52 µM (inactive) | 7.29 µM (inactive) | 0.82 µM (active) | 0.597 µM (active) | 0.908 µM (active) | 28.2 µM (inactive) | 2.6 µM (inactive) | 31.5 µM (inactive) | 17.3 µM (inactive) | 3.59 µM (inactive) | 2.52 µM (inactive) | 1.7 µM (inactive) | 3.15 µM (inactive) | 0.698 µM (active) | 2.63 µM (inactive) | 8.41 µM (inactive)
OC(c1ccccc1)C(F)(F)c1nc2ccccc2o1 (stereo not drawn) | > 100 µM (inactive) | > 100 µM (inactive) | 14.7 µM (inactive) | 70 µM (inactive) | – | 82 µM (inactive) | 27.9 µM (inactive) | 61.2 µM (inactive) | > 100 µM (inactive) | > 100 µM (inactive) | > 100 µM (inactive) | > 100 µM (inactive) | > 100 µM (inactive) | 55.3 µM (inactive) | > 100 µM (inactive) | > 100 µM (inactive) | > 100 µM (inactive) | > 100 µM (inactive) | > 100 µM (inactive) | > 100 µM (inactive)
CC(C)(C)OC(=O)N/C=C1\C(=O)Oc2ccccc2C1=O | 23.5 µM (inactive) | 70.8 µM (inactive) | 8.36 µM (inactive) | > 100 µM (inactive) | 39.6 µM (inactive) | 39.2 µM (inactive) | > 100 µM (inactive) | > 100 µM (inactive) | 37.8 µM (inactive) | 54 µM (inactive) | 31.3 µM (inactive) | 14.6 µM (inactive) | 45.1 µM (inactive) | 24 µM (inactive) | 21.8 µM (inactive) | 13.9 µM (inactive) | 15 µM (inactive) | 25.2 µM (inactive) | 20.2 µM (inactive) | 20.7 µM (inactive)
